In US20250170237A1, “MURAMYL DIPEPTIDES AND PROCESS FOR PREPARATION THEREOF” (priority 2022, published 2025):

How the values were obtained:
OVA antigen = test: IgG titer with OVA antigen (indirect ELISA, immunized mice); format: in vivo, BALB/c mice
Protocol: (§1) Adjuvanticity of 15b was evaluated using antigens (OVA, HBsAg, DENV and JEV) in BALB/c mice model—From the immunized mice retro-orbital sampling or retro-orbital blood was collected on 14th and 28th day before sacrifice. Serum was separated by centrifugation at 12,500 rpm for 5 min. Transferred to a clean centrifuge tube and store at −80 until used.
(§2) The plates were coated with antigen in carbonate buffer. Plates were incubated at 4° C. overnight. They were then washed 3 times with PBS/Tween, and non-specific binding sites were blocked by adding 200 μl of blocking solution. Plates were incubated at room temperature for 1 h. Then 3 times wash is done, diluted standards and samples to desired concentrations in blocking solution were added to the plates. Incubate at 37° C. for 1 h or at 4° C. overnight. Plates were washed 3 times with PBS/Tween. Avidin-Horseradish Peroxidase (Av-HRP) was diluted and added. Incubated at room temperature for 30 min. Plates were washed 3 times with PBS/Tween. OPD Substrate was added and plates were incubated at room temperature (4-30 min) for colour development. The colour reaction was stopped by adding 50 μl of stop solution. Optical density (OD) was read at 492 nm.

CD4, CD8 [1] = test: Post JEV immunization Immunophenotyping; format: in vivo, BALB/c mice
Protocol: (§3) Staining for extracellular markers Staining was as per the manufacturer's protocol and run on a BD FACS Verse flow cytometer. Compensation was established using BD Biosciences compensation beads. Post-acquisition flow cytometry analysis was performed using FACS Suite software.

[2] = test system: antigens (OVA, HBsAg, DENV and JEV); test: Serum anti-antigens (OVA, HBsAg, DENV and JEV) IgG titer, overall statements; format: in vivo, BALB/c mice; conditions: 15b against Ovalbumin, DEV, 15f against JEV
Protocol: as §1, §2

HBsAg antigen = test: IgG titer with HBsAg antigen; format: in vivo, BALB/c mice
Protocol: as §1, §2

CD4, CD8 [3] = test: Post HBsAg immunization Immunophenotyping; format: in vivo, BALB/c mice
Protocol: as §3

[4] = test system: CD4, CD8, CD19, CD80, CD 28; test: Post Denv immunization Immunophenotyping; format: in vivo, BALB/c mice
Protocol: as §3

JEV antigen = test: IgG titer with JEV antigen; format: in vivo, BALB/c mice
Protocol: as §1, §2

splenocytes = test: Post JEV immunization In vivo splenocyte proliferation assay; set-up: species or system BALB/c mice; conditions: UT = 100 (Table 15)
Protocol: Splenocytes were seeded into 96-well flat-bottom microtiter plates having 1×10^5 cells/well in […] complete RPMI-1640 medium. Plates were incubated at 37° C. with 5% CO2. After 48 h, […] MTT solution (5 mg/mL) was added to each well and left to incubate for next 4 h. Untransformed MTT ([…]) was removed from each well by pipetting. A total of […] of DMSO was added and the absorbance was evaluated in an ELISA reader at 630 nm on the multimode reader (Infinite 200 Pro, Switzerland) after 15 min

[5] = test system: cytokines IL-1, IL-2, IL-4, IFN, IL-6, IL-10, IL-12, TNF; test: Post JEV immunization In vivo cytokine assay; set-up: species or system BALB/c mice
Protocol: (§4) ELISA was carried out by Bio Legend capture and detection antibodies. Briefly, 96-well plates were coated with capture antibody dissolved in coating buffer per well incubated overnight at 4° C. Wells were blocked with BSA for 1 h at RT. After blocking, 50 μL/well of serum was added and incubated for 3 h. After washing, Biotinylated secondary antibody was added along with enzyme. Plates were incubated for 1 h at RT. Then plates were washed and TMB substrate solution was added. The reaction was stopped after 30 min with a stopping solution. Absorbance was measured at 450 nm with a plate reader.

[6] = test system: cytokines IFN, IL-1, IL-4, IL-6, IL-10; test: Post HBsAg immunization In vivo cytokine assay; set-up: species or system BALB/c mice
Protocol: as §4

C[C@H](NC(=O)[C@@H](C)O[C@H]1[C@H](O)[C@@H](CO)OC(O)[C@@H]1NC(=O)C1CC1)C(=O)N[C@H](CCC(=O)O)C(N)=O (stereo partly drawn) [15b, (4R)-5-amino-4-((2S)-2-((2R)-2-(((3R,4R, 5S, 6R)-3-(cyclopropanecarboxamido)-2,5-dihydroxy-6-(hydroxymethyl)tetrahydro-2H-pyran-4-yl)oxy)propanamido)propanamido)-5-oxopentanoic acid]
IgG titer with OVA antigen (OVA antigen; dose 1 μg): 1600-124000 | IgG titer with OVA antigen (OVA antigen; dose 10 μg): 204800-416000 | IgG titer with OVA antigen (OVA antigen; dose 100 μg): 115000-320000 | CD4 (CD4, CD8 [1]; dose 1 μG): 39.75-42.58 | CD8 (CD4, CD8 [1]; dose 1 μG): 14.56-19.54 | CD4 (CD4, CD8 [1]; dose 10 μG): 41.86-43.28 | CD8 (CD4, CD8 [1]; dose 10 μG): 14.78-17.25 | antibody titer, conclusion in words [2]: significant antibody titer | IgG titer with HBsAg antigen (HBsAg antigen; dose 1 μg): 51200-102400 | IgG titer with HBsAg antigen (HBsAg antigen; dose 10 μg): 102400-240000 | CD4 (CD4, CD8 [3]; dose 1 μG): 24.48-29.48 | CD8 (CD4, CD8 [3]; dose 1 μG): 12.71-19.48 | CD4 (CD4, CD8 [3]; dose 10 μG): 25.47-29.48 | CD8 (CD4, CD8 [3]; dose 10 μG): 12.67-18.54 | CD4 ([4]; dose 1 μG): 36.26-41.8 | CD8 ([4]; dose 1 μG): 22.26-29.48 | CD19 ([4]; dose 1 μG): 30.57-35.48 | CD 28 ([4]; dose 1 μG): 3.65-7.48 | CD80 ([4]; dose 1 μG): 6.3-8.4 | CD4 ([4]; dose 10 μG): 38.74-43.84 | CD8 ([4]; dose 10 μG): 22.92-27.84 | CD19 ([4]; dose 10 μG): 36.19-41.28 | CD 28 ([4]; dose 10 μG): 3.68-8.41 | CD80 ([4]; dose 10 μG): 6.11-11.4 | IgG titer with JEV antigen (JEV antigen; dose 1 μg (Table 13)): 64000-128000 | IgG titer with JEV antigen (JEV antigen; dose 10 μg (Table 13)): 8000-16000 | IgG titer with JEV antigen (JEV antigen; dose 100 μg (Table 13)): 40000-80000 | Splenocyte proliferation, Con A (splenocytes; dose 1 μg): 117.5-119.48 | Splenocyte proliferation, LPS (splenocytes; dose 1 μg): 118.2-120.01 | Splenocyte proliferation, Normal (splenocytes; dose 1 μg): 118.6-120.48 | Splenocyte proliferation, Restimulated (splenocytes; dose 1 μg): 116.5-119.27 | Splenocyte proliferation, Con A (splenocytes; dose 10 μg): 124.55-126.85 | Splenocyte proliferation, LPS (splenocytes; dose 10 μg): 104.6-109.57 | Splenocyte proliferation, Normal (splenocytes; dose 10 μg): 111.38-115.78 | Splenocyte proliferation, Restimulated (splenocytes; dose 10 μg): 114.2-117.24 | IFN ([5]; dose 1 μg (Table 14)): 4.21 to 6.37 pg/mL | IL-2 ([5]; dose 1 μg (Table 14)): 13.77 to 19.81 pg/mL | IL-6 ([5]; dose 1 μg (Table 14)): 157.05 to 160.47 pg/mL | IL-10 ([5]; dose 1 μg (Table 14)): 48 to 51.02 pg/mL | IFN ([5]; dose 10 μg (Table 14)): 11.03 to 13.05 pg/mL | IL-1 ([5]; dose 10 μg (Table 14)): 61.9 to 67.25 pg/mL | IL-2 ([5]; dose 10 μg (Table 14)): 12.17 to 15.34 pg/mL | IL-6 ([5]; dose 10 μg (Table 14)): 233.3 to 245.27 pg/mL | IL-10 ([5]; dose 10 μg (Table 14)): 52.3 to 54.28 pg/mL | IFN ([5]; dose 100 μg (Table 14)): 3.06 to 6.48 pg/mL | IL-1 ([5]; dose 100 μg (Table 14)): 70.1 to 73.48 pg/mL | IL-2 ([5]; dose 100 μg (Table 14)): 23.97 to 27.45 pg/mL | IL-6 ([5]; dose 100 μg (Table 14)): 279.85 to 281.47 pg/mL | IL-10 ([5]; dose 100 μg (Table 14)): 57.5 to 59.48 pg/mL | IFN ([6]; dose 1 μg): 80.6 pg/mL | IFN ([6]; dose 10 μg): 75.07 pg/mL | IFN ([6]; dose 100 μg): 68.6 pg/mL | % Hemolysis (In vitro Hemolysis assay; erythrocytes (red blood cells)): 2.302 ± 0.147% | toxicity and hemolysis, conclusion in words (In vitro Hemolysis assay; even at higher concentrations): non-toxic and non-hemolytic
